From PMC7067653 (Bioorganic & medicinal chemistry letters, 2020) come the findings set out here.

Structures are written as SMILES.

Test [1] deals with human dopamine D2 receptor (Homo sapiens, UniProt P14416). Nature of the test: Binding affinity at human dopamine D2 receptor. Particulars: triplicate; na = not active (< 50% inhibition in a primary assay).
For test [2], the target named is human dopamine D1 receptor (Homo sapiens, UniProt P21728). Nature of the test: Binding affinity at human dopamine D1 receptor. Particulars: amide versus aniline precursor.
Sequence of human dopamine D1 receptor (P21728 whole entry): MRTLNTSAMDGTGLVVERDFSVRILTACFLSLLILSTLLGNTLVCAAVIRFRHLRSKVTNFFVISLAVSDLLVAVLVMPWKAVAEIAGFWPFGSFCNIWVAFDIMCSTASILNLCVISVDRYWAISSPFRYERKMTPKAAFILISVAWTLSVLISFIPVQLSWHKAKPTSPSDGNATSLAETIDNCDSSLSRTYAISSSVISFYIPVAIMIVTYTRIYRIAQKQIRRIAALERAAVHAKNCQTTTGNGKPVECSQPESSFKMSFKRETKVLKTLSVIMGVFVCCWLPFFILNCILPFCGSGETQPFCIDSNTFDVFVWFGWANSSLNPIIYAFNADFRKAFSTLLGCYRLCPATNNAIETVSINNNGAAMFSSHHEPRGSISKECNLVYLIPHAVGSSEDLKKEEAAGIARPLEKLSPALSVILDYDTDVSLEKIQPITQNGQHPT
Test [3] deals with T1, human serotonin 5-HT1A receptor (Homo sapiens, UniProt P08908).
T1 sequence (P08908 1-422): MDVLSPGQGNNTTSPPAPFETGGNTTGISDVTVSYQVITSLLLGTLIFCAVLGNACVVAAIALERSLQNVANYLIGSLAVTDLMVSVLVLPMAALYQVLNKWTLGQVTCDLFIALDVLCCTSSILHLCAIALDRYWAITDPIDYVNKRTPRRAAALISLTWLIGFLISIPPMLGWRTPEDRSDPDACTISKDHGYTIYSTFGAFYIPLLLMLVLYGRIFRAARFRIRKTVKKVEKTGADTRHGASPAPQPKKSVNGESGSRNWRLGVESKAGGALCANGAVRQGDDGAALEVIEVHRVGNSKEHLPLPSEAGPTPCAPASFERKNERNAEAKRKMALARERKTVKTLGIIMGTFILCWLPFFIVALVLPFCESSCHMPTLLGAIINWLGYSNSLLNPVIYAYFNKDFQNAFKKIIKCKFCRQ
Nature of the test: Binding affinity at human serotonin 5-HT1A receptor. Particulars: triplicate; na = not active (< 50% inhibition in a primary assay).

Sequence of human dopamine D2 receptor (P14416 whole entry): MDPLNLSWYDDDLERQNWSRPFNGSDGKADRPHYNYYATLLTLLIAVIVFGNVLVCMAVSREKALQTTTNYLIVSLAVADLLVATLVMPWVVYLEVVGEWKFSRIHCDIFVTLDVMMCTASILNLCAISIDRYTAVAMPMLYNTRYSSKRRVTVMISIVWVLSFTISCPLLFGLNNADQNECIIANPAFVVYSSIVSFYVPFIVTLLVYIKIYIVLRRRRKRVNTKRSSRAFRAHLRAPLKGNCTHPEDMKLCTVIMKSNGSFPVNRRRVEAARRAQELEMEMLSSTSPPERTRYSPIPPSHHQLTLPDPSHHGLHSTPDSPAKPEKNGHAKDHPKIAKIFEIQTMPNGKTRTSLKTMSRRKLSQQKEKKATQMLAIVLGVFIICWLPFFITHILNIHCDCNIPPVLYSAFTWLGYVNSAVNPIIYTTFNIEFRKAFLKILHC

As to `C=CCOc1c(OC)cc2c3c1-c1cc(NC(C)=O)ccc1CC3N(C)CC2` (stereo not shown) [Compound 20b], the “Ki D2” value in test [1] is reported as “no D2 receptor affinity”. The “fold increase in D1 receptor affinity on N-acylation” value in test [2] is not above 12 fold.

Consider `C=CCOc1c(OC)cc2c3c1-c1cc(N)ccc1CC3N(C)CC2` (stereo not shown) [Compound 19d], for which the “Ki 5-HT1A” value in test [3] was “no affinity”.

For the compound `C#CCOc1c(OC)cc2c3c1-c1cc(NC(C)=O)ccc1CC3N(C)CC2` (stereo not shown) [Compound 20c], the “fold increase in D1 receptor affinity on N-acylation” value in test [2] is not above 12 fold.
